Experimental data: PubChem BioAssay AID1963449 (Molecular Pharmacology Branch, DTP, NCI, 2024)

Tested on: 596521-263-R-J1-PDC complex spheroid growth
Assay: Anticancer human tumor 596521-263-R-J1-PDC patient-derived soft tissue sarcoma cell line growth inhibition [Asc]
Settings: for IC50: curve of first compound; for viability, T/C: stronger effect = lower value
Procedure: Multicellular complex tumor spheroid response to apoptosis pathway targeting inhibitors Alrizomadlin, Pelcitoclax, and Dasminapant in combination with a variety of drugs and investigational agents in selected tumor cell lines
The MDM2 inhibitor alrizomadlin, the Bcl-2/Bcl-xL inhibitor pelcitoclax, and the IAPs inhibitor dasminapant were evaluated both individually and in combination with standard of care and investigational anticancer small molecules within a complex spheroid model of solid tumors. . Complex spheroids include a stromal component modeled by human endothelial cells (HUVEC) and fibroblasts modeled by human mesenchymal stem cells (MSCs). The concentration ranges selected for each drug and investigational agent were based upon clinically achievable concentrations if the clinical Cmax of the agent was known.
Compounds. The drugs and investigational agents: alrizomadlin (APG-115; NSC831270), pelcitoclax (APG-1252; NSC835773), dasminapant (APG-1387;NSC834197), TAK-243 (NSC785004), copanlisib (NSC809693), olaparib (NSC753686), talazoparib (NSC767125), cobimetinib (NSC 768068), eltanexor (KPT-8602, NSC 794443), abemaciclib (NSC 768073), sotorasib (NSC818433), adagrasib (NSC 831453), MRTX-1133 (NSC 836407), Iadademestat (ORY1001, NSC 806812), and RMC-4630 (NSC839698), were obtained from the NCI Developmental Therapeutics Program Chemical Repository. The FDA-approved anticancer drug set is available from the Developmental Therapeutics Program at https://dtp.cancer.gov/organization/dscb/obtaining/available plates.htm. […] The stock solutions were prepared in dimethyl sulfoxide (DMSO, Sigma-Aldrich, St. Louis, MO, cat. D2650) at 800-fold the tested concentration and stored at -70 degrees C prior to their use. All drugs and investigational agents were tested over a range starting from a high concentration at or near the clinical Cmax and decreasing in half-log increments. If the clinical Cmax for an agent had not been determined, the highest concentration tested was 10 microM.
The patient-derived cancer (PDC) cell lines include five colon adenocarcinomas: 186277-243-T-J2-PDC, 616215-338-R-J1-PDC, 439559-082-T-J2-PDC, 463943-066-T-J2-PDC, and 519858-162-T-J1-PDC; three pancreatic carcinomas: 323965-272-R-J2-PDC, 521955-158-R6-J3-PDC, and 521955-158-R2-J5-PDC; two uterine sarcomas: 327498-152-R-J2-PDC and 993429-296-R-J1-PDC; two rhabdomyosarcomas: 755483-174-R-J1-PDC and 772245-204-R-J1-PDC; two soft tissue sarcomas: 126254-015-R-J1-PDC and 494315-158-R-J1-PDC; two malignant fibrous histiocytomas: 317291-083-R-J1-PDC and 596521-263-R-J1-PDC; two breast carcinomas: 171881-019-R-J1-PDC and 885512-296-R-J2-PDC; and one ovarian carcinoma: 6556581-035-R-J-PDC were obtained from the NCI PDMR, (https://pdmr.cancer.gov). The established cell lines HSSY-2 synovial sarcoma (RRID:CVCL 8719), SYO-1 synovial sarcoma (RRID:CVCL_7146), MPNST malignant peripheral neural sheath tumor were obtained from the Sloan Kettering Institute. The following established cell lines were purchased from the American Type Culture Collection (ATCC, Manassas, VA), Sor the received from the NCI repository:, PANC-1 pancreatic carcinoma (CRL-1469, RRID:CVCL_0480), OVCAR-5 ovarian carcinoma (RRID:CVCL_1628), OVCAR-8 ovarian carcinoma (RRID:CVCL_1629), , MCF-7 breast carcinoma (CRL-12584, RRID:CVCL_0031), MDA-MB-231 breast carcinoma (CRL-12532, RRID:CVCL_0062), NCI-H1876 small cell lung carcinoma (CRL-5902, RRID:CVCL_1503), NCI-H510A small cell lung carcinoma (HTB-184, RRID:CVCL_1565), NCI-H1417 (CRL-5869, RRID:CVCL_1469), and NCI-H196 small cell lung carcinoma (CRL-5823, RRID:CVCL_1509). Dr. Peter Houghton (Greehey Children's Cancer Research Institute, University of Texas Health Science Center, San Antonio, TX) provided Rh-18 rhabdomyosarcoma (RRID:CVCL_1659). Pooled donor human umbilical vein endothelial cells (HUVEC, Lonza, cat. CC-2519) and human mesenchymal stem cells (hMSC, Lonza, cat. PT-2501) were purchased from Lonza (Walkersville, MD).
Cell Culture. […]

[1] = second compound 0.00949 µM, first compound 0.00316 µM
[2] = second compound 0.00949 µM, first compound 0.01 µM
[3] = second compound 0.00949 µM, first compound 0.0316 µM
[4] = second compound 0.00949 µM, first compound 0.1 µM
[5] = second compound 0.00949 µM, first compound 0.316 µM
[6] = second compound 0.00949 µM, first compound 1 µM
[7] = second compound 0.03 µM, first compound 0.00316 µM
[8] = second compound 0.03 µM, first compound 0.01 µM
[9] = second compound 0.03 µM, first compound 0.0316 µM
[10] = second compound 0.03 µM, first compound 0.1 µM
[11] = second compound 0.03 µM, first compound 0.316 µM
[12] = second compound 0.03 µM, first compound 1 µM
[13] = second compound 0.0949 µM, first compound 0.00316 µM
[14] = second compound 0.0949 µM, first compound 0.01 µM
[15] = second compound 0.0949 µM, first compound 0.0316 µM
[16] = second compound 0.0949 µM, first compound 0.1 µM
[17] = second compound 0.0949 µM, first compound 0.316 µM
[18] = second compound 0.0949 µM, first compound 1 µM
[19] = second compound 0.3 µM, first compound 0.00316 µM
[20] = second compound 0.3 µM, first compound 0.01 µM
[21] = second compound 0.3 µM, first compound 0.0316 µM
[22] = second compound 0.3 µM, first compound 0.1 µM
[23] = second compound 0.3 µM, first compound 0.316 µM
[24] = second compound 0.3 µM, first compound 1 µM
[25] = second compound 0.949 µM, first compound 0.00316 µM
[26] = second compound 0.949 µM, first compound 0.01 µM
[27] = second compound 0.949 µM, first compound 0.0316 µM
[28] = second compound 0.949 µM, first compound 0.1 µM
[29] = second compound 0.949 µM, first compound 0.316 µM
[30] = second compound 0.949 µM, first compound 1 µM
[31] = second compound 3 µM, first compound 0.00316 µM
[32] = second compound 3 µM, first compound 0.01 µM
[33] = second compound 3 µM, first compound 0.0316 µM
[34] = second compound 3 µM, first compound 0.1 µM
[35] = second compound 3 µM, first compound 0.316 µM
[36] = second compound 3 µM, first compound 1 µM
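Also: spheroids exposed to compounds for 7 days.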

For `CCN1CCN(Cc2ccc(Nc3ncc(F)c(-c4cc(F)c5nc(C)n(C(C)C)c5c4)n3)nc2)CC1` + CCN1C(C(=O)NC23CCC(C(=O)O)(CC2)CC3)C(c2cccc(Cl)c2F)C2(C(=O)Nc3cc(Cl)ccc32)C12CCCCC2, the IC50 (second compound 0.00949 µM) was > 1000 nM, the IC50 (second compound 0.03 µM) was > 1000 nM and the IC50 (second compound 0.0949 µM) was > 1000 nM. For the same compound, the IC50 (second compound 0.3 µM) was > 1000 nM, the IC50 (second compound 0.949 µM) was > 1000 nM and the IC50 (second compound 3 µM) was > 1000 nM. It also gave a viability, T/C [1] of 100%, a viability, T/C [2] of 96.6% and a viability, T/C [3] of 82.5%. The viability, T/C [4] was 103%, the viability, T/C [5] was 97.5% and the viability, T/C [6] was 83.2%. It also gave a viability, T/C [7] of 92.6%, a viability, T/C [8] of 96.9% and a viability, T/C [9] of 96.8%. It also gave a viability, T/C [10] of 89.4%, a viability, T/C [11] of 110% and a viability, T/C [12] of 88%. It also gave a viability, T/C [13] of 99.5%, a viability, T/C [14] of 112% and a viability, T/C [15] of 96.1%. For the same compound, the viability, T/C [16] was 85.5%, the viability, T/C [17] was 93.6% and the viability, T/C [18] was 86.7%. It also gave a viability, T/C [19] of 97.1%, a viability, T/C [20] of 93.5% and a viability, T/C [21] of 90%. For the same compound, the viability, T/C [22] was 102%, the viability, T/C [23] was 93.1% and the viability, T/C [24] was 77.3%. For the same compound, the viability, T/C [25] was 103%, the viability, T/C [26] was 93.2% and the viability, T/C [27] was 103%. The viability, T/C [28] was 91.2%, the viability, T/C [29] was 82.8% and the viability, T/C [30] was 83.4%. The viability, T/C [31] was 91.6%, the viability, T/C [32] was 102% and the viability, T/C [33] was 89.9%. It also gave a viability, T/C [34] of 97.7%, a viability, T/C [35] of 98.5% and a viability, T/C [36] of 89.9%.

Work on `O=C(c1ccc(F)c(F)c1Nc1ccc(I)cc1F)N1CC(O)([C@@H]2CCCCN2)C1` + CCN1C(C(=O)NC23CCC(C(=O)O)(CC2)CC3)C(c2cccc(Cl)c2F)C2(C(=O)Nc3cc(Cl)ccc32)C12CCCCC2 yielded an IC50 (second compound 0.00949 µM) of 493 nM, an IC50 (second compound 0.03 µM) of 466 nM and an IC50 (second compound 0.0949 µM) of 418 nM. The IC50 (second compound 0.3 µM) was 428 nM, the IC50 (second compound 0.949 µM) was 356 nM and the IC50 (second compound 3 µM) was 315 nM. For the same compound, the viability, T/C [1] was 113%, the viability, T/C [2] was 98.4% and the viability, T/C [3] was 112%. The viability, T/C [4] was 83.6%, the viability, T/C [5] was 58.4% and the viability, T/C [6] was 38.8%. For the same compound, the viability, T/C [7] was 104%, the viability, T/C [8] was 100% and the viability, T/C [9] was 103%. For the same compound, the viability, T/C [10] was 81.9%, the viability, T/C [11] was 57.8% and the viability, T/C [12] was 36.4%. For the same compound, the viability, T/C [13] was 101%, the viability, T/C [14] was 96.1% and the viability, T/C [15] was 112%. It also gave a viability, T/C [16] of 84.3%, a viability, T/C [17] of 56.4% and a viability, T/C [18] of 34.3%. It also gave a viability, T/C [19] of 119%, a viability, T/C [20] of 94.9% and a viability, T/C [21] of 101%. The viability, T/C [22] was 79.1%, the viability, T/C [23] was 51.4% and the viability, T/C [24] was 37%. For the same compound, the viability, T/C [25] was 97.8%, the viability, T/C [26] was 99.8% and the viability, T/C [27] was 98.2%. It also gave a viability, T/C [28] of 82.9%, a viability, T/C [29] of 51.4% and a viability, T/C [30] of 39.7%. It also gave a viability, T/C [31] of 97.1%, a viability, T/C [32] of 84.9% and a viability, T/C [33] of 91.5%. For the same compound, the viability, T/C [34] was 65.6%, the viability, T/C [35] was 53.4% and the viability, T/C [36] was 44.5%.
